In US20170121344A1 (Siga Technologies, Inc., priority 2009, published 2017):
Where two headings read alike, the source gives them in different places.

What was measured:
[1] = tested on: Dengue-2 (Strain New Guinea C); experiment: Viral yield assay against Dengue-2 in Vero cells; type: cell-based, Dengue virus; conditions: Dengue virus, DENV2, Vero cells, read-out: Activity (EC50 in μM) DENV-2
How it was run: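 Virus yield, titered on Vero cells from cultures harvested at 48 h post infection, gave the EC50. Cultures were infected at MOI 0.1 with dengue-2 and treated with compound or DMSO at 37° C. DENV-1 and DENV-4 were determined similarly.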

[2] = tested on: DENV-1; experiment: Viral yield assay against DENV-1 in Vero cells; type: cell-based; conditions: Dengue virus
Experimental: (§1) Compounds that were active in the primary screen were tested for activity in viral yield assays. […] Vero cells in 12-well plates were infected with dengue-2 virus at a multiplicity of infection (MOI) of 0.1, treated with compound (or DMSO as a control), incubated at 37° C., harvested 48 hours post infection and titered on Vero cells as described above. The EC50 was calculated through ExcelFit. Activities against other serotypes of dengue virus were determined in a similar way.

[3] = tested on: DENV-3; experiment: Viral yield assay against DENV-3 in Vero cells; type: cell-based; conditions: Dengue virus
Experimental: as §1

[4] = tested on: DENV-4; experiment: Viral yield assay against DENV-4 in Vero cells; type: cell-based; conditions: Dengue virus
Experimental: as §1

[5] = viral yield assay, MOI 0.1, 48 hours post infection

Structure (SMILES) | EC50 [1, 5] [µM] | EC50 ([2]; DENV1, viral yield assay) [µM] | EC50 ([3]; DENV3, viral yield assay) [µM] | EC50 ([4]; DENV4, viral yield assay) [µM] | EC50 [1] [µM] | EC50 ([2]; DENV1) [µM] | EC50 ([3]; DENV3) [µM] | EC50 ([4]; DENV4) [µM]
Nc1c(C(=O)Nc2ccc3ccccc3c2)sc2nc3c(cc12)CCCCC3 [Compound 365, 3-amino-N-(naphthalen-2-yl)-6,7,8,9-tetrahydro-5H-cyclohexpta[b]thieno[3,2-e] pyridine-2-carboxamide] | < 5 | 5 to 25 | 5 to 25 | > 25 |  |  |  | 
Cc1ccc(-c2ccc3c(N)c(C(=O)Nc4ccc(Cl)cc4)sc3n2)cc1 [Compound 648, 3-amino-N-(4-chlorophenyl)-6-(p-tolyl) thieno[2,3-b]pyridine-2-carboxamide] | < 5 | < 5 | < 5 | < 5 |  |  |  | 
Cc1ccc(C)c(NC(=O)c2sc3nc(-c4cccs4)ccc3c2N)c1 [Compound 438, 3-amino-N-(2,5-dimethylphenyl)-6-(2-thienyl)thieno[2,3-b]pyridine-2-carboxamide] | < 5 | < 5 | < 5 | < 5 |  |  |  | 
Cc1ccc(NC(=O)c2sc3nc(-c4ccc5c(c4)OCO5)ccc3c2N)cc1Cl [Compound 529, 3-amino-6-(1,3-benzodioxol-5-yl)-N-(3-chloro-4-methyl-phenyl)thieno[2,3-b] pyridine-2-carboxamide] | < 5 | < 5 | < 5 | < 5 |  |  |  | 
CSc1ccc(NC(=O)c2sc3nc(-c4ccc(F)cc4)ccc3c2N)cc1 [Compound 625, 3-amino-6-(4-fluorophenyl)-N-(4-methylsulfanylphenyl)thieno[2,3-b] pyridine-2-carboxamide] | < 5 | < 5 | < 5 | > 25 |  |  |  | 
Cc1ccnc2sc(C(=O)Nc3nnc(-c4ccccc4)s3)c(N)c12 [Compound 288, 3-amino-4-methyl-N-(5-phenyl-1,3,4-thiadiazol-2-yl)thieno[2,3-b]pyridine-2-carboxamide] | < 5 | < 5 | 5 to 25 | < 5 |  |  |  | 
Nc1c(C(=O)Nc2cc(Cl)cc(Cl)c2)sc2nc(-c3cccs3)ccc12 [Compound 431, 3-amino-N-(3,5-dichloropehnyl)-6-(2-thienyl)thieno[2,3-b]pyridine-2-carboxamide] | < 5 | < 5 | < 5 | < 5 |  |  |  | 
Nc1c(C(=O)Nc2cccc(C(F)(F)F)c2)sc2nc3c(cc12)CCCCC3 [Compound 368, 3-amino-N-(3-(trifluoromethyl)phenyl)-6,7,8,9-tetrahydro-5H-cyclohepta[b]thieno [3,2-e]pyridine-2-carboxamide] | < 5 | < 5 | < 5 | < 5 |  |  |  | 
Nc1c(C(=O)Nc2nnc(-c3ccccc3)s2)sc2nc(-c3cccs3)ccc12 [Compound 488, 3-amino-N-(5-phenyl-1,3,4-thiadiazol-2-yl)-6-(2-thienyl)thieno[2,3-b]pyridine-2-carboxamide] | < 5 | < 5 | < 5 | < 5 |  |  |  | 
Nc1c(C(=O)Nc2ccccc2Br)sc2nc(-c3cccs3)ccc12 [Compound 462, 3-amino-N-(2-bromophenyl)-6-(2-thienyl)thieno[2,3-b]pyridine-2-carboxamide] | < 5 | < 5 | < 5 | < 5 |  |  |  | 
COc1ccc(-c2ccc3c(N)c(C(=O)Nc4ccc(Br)cc4F)sc3n2)cc1OC [Compound 628, 3-amino-N-(4-bromo-2-fluoro-phenyl)-6-(3,4-dimethoxyphenyl)thieno[2,3-b] pyridine-2-carboxamide] | < 5 | < 5 | < 5 | < 5 |  |  |  | 
COc1ccc(Cl)cc1NC(=O)c1sc2nc(-c3ccc(OC)c(OC)c3)ccc2c1N [Compound 532, 3-amino-N-(5-chloro-2-methoxy-phenyl)-6-(3,4-dimethoxyphenyl)thieno[2,3-b] pyridine-2-carboxamide] | < 5 | < 5 | < 5 | < 5 |  |  |  | 
CN1CCc2nc3sc(C(=O)Nc4ccc(OC(F)(F)F)cc4)c(NCC(=O)O)c3cc2C1 [Compound 303, 2-[[6-methyl-2-[[4-(trifluoromethoxy)phenyl]carbamoyl]-7,8-dihydro-5H-thieno[2,3-b][1,6]naphthyridin-3-yl]amino]acetic acid] |  |  |  |  | < 5 | 5 to 25 | 5 to 25 | < 5
COc1cccc(-c2ccc3c(N)c(C(=O)Nc4ccc(C(F)(F)F)cc4)sc3n2)c1 [Compound 448, 3-amino-6-(3-methoxyphenyl)-N-[4-(trifluoromethyl)phenyl]thieno[2,3-b] pyridine-2-carboxamide] | < 5 | < 5 | < 5 | < 5 |  |  |  | 
Nc1c(C(=O)Nc2cccc(F)c2)sc2nc(-c3cccs3)ccc12 [Compound 464, 3-amino-N-(3-fluorophenyl)-6-(2-thienyl)thieno[2,3-b]pyridine-2-carboxamide] | < 5 | < 5 | < 5 | < 5 |  |  |  | 
Nc1c(C(=O)Nc2ccc(C(F)(F)F)cc2)sc2nc(-c3ccc4c(c3)OCO4)ccc12 [Compound 452, 3-amino-6-(1,3-benzodioxol-5-yl)-N-[4-(trifluoromethyl)phenyl]thieno[2,3-b] pyridine-2-carboxamide] | < 5 | < 5 | < 5 | < 5 |  |  |  | 
COc1ccc(NC(=O)c2sc3nc(-c4ccc5c(c4)OCO5)ccc3c2N)c(OC)c1 [Compound 651, 3-amino-6-(1,3-benzodioxol-5-yl)-N-(2,4-dimethoxyphenyl)thieno[2,3-b]pyridine-2-carboxamide] | < 5 | < 5 | < 5 | < 5 |  |  |  | 
Nc1c(C(=O)Nc2ccc(OC(F)(F)F)cc2)sc2nc(-c3cccc(OC(F)F)c3)ccc12 [Compound 339, 3-amino-6-[3-(difluoromethoxy)phenyl]-N-[4-(trifluoromethoxy)phenyl]thieno[2,3-b]pyridine-2-carboxamide] | < 5 | < 5 | < 5 | < 5 |  |  |  | 
CCOc1ccc(NC(=O)c2sc3nc(-c4ccc(OC)c(OC)c4)ccc3c2N)cc1 [Compound 635, 3-amino-6-(3,4-dimethoxyphenyl)-N-(4-ethoxyphenyl)thieno[2,3-b]pyridine-2-carboxamide] | < 5 | < 5 | > 25 | < 5 |  |  |  | 
COc1cccc(-c2ccc3c(N)c(C(=O)Nc4ccccc4Oc4ccccc4)sc3n2)c1 [Compound 522, 3-amino-6-(3-methoxyphenyl)-N-(2-phenoxyphenyl)thieno[2,3-b]pyridine-2-carboxamide] | < 5 | < 5 | < 5 | < 5 |  |  |  | 
O=C(O)CC(=O)Nc1c(C(=O)Nc2nnc(-c3ccccc3)s2)sc2nc3c(cc12)CCCCC3 [Compound 295, 3-oxo-3-((2-((5-phenyl-1,3,4-thiadiazol-2-yl)carbamoyl)-6,7,8,9-tetrahydro-5H-cyclohepta[b]thieno[3,2-e]pyridin-3-yl)amino)propanoic acid] |  |  |  |  | < 5 | < 5 | < 5 | < 5
O=C(O)CCC(=O)Nc1c(C(=O)Nc2cccc(C(F)(F)F)c2)sc2nc(-c3cccs3)ccc12 [Compound 311, 4-oxo-4-[[6-(2-thienyl)-2-[[3-(trifluoromethyl)phenyl]carbamoyl]thieno[2,3-b]pyridin-3-yl]amino]butanoic acid] |  |  |  |  | < 5 | < 5 | < 5 | < 5
CC(=O)Nc1c(C(=O)Nc2nnc(-c3ccccc3)s2)sc2nc3c(cc12)CCCCC3 [Compound 358, 3-acetamido-N-(5-phenyl-1,3,4-thiadiazol-2-yl)-6,7,8,9-tetrahydro-5H-cyclohepta[b]thieno[3,2-e]pyridine-2-carboxamide] |  |  |  |  | < 5 | < 5 | 5 to 25 | > 25
COc1cccc(-c2ccc3c(N)c(C(=O)Nc4ccc(OC(F)(F)F)cc4)sc3n2)c1 [Compound 430, 3-amino-6-(3-methoxyphenyl)-N-[4-(trifluoromethoxy)phenyl]thieno[2,3-b] pyridine-2-carboxamide] | < 5 | < 5 | < 5 | < 5 |  |  |  | 
Nc1c(C(=O)Nc2cccc(Cl)c2Cl)sc2nc(-c3ccc(Cl)cc3)ccc12 [Compound 343, 3-amino-6-(4-chlorophenyl)-N-(2,3-dichloro-phenyl)thieno [2,3-b]pyridine-2-carboxamide] | < 5 | < 5 | < 5 | < 5 |  |  |  | 
Nc1c(C(=O)Nc2ccc(Br)nc2)sc2nc(-c3ccc(Cl)cc3)ccc12 [Compound 336, 3-amino-N-(6-bromo-3-pyridyl)-6-(4-chlorophenyl)thieno [2,3-b]pyridine-2-carboxamide] | < 5 | < 5 | < 5 | < 5 |  |  |  | 
Cc1ccc(-c2ccc3c(N)c(C(=O)Nc4ccc(Br)cc4)sc3n2)cc1 [Compound 485, 3-amino-N-(4-bromophenyl)-6-(p-tolyl) thieno[2,3-b]pyridine-2-carboxamide] | < 5 | < 5 | < 5 | < 5 |  |  |  | 
